According to ChEMBL document CHEMBL1156504, “Structural characterization of the human androgen receptor ligand-binding domain complexed with EM5744, a rationally designed steroidal ligand bearing a bulky chain directed toward helix 12” (J Biol Chem, 2007):
The source made the active and inactive calls. The calls are words filed in the database; no cut-off is given here.

Tests used:
[1] = organism: Mus musculus; test: Induction of proliferation of mouse Shionogi cells at 10 pM; assay type: functional
[2] = organism: Mus musculus; test: Inhibition of 5-alpha-dihydrotestosterone-stimulated growth of mouse Shionogi cells at 1 uM; assay type: functional

Row | SMILES | Activity [1] | Activity [2]
1 | C[C@]12CCC(=O)C[C@@H]1CC[C@@H]1[C@@H]2CC[C@]2(C)[C@@H](O)CC[C@@H]12 | Active | 
2 | C[C@]12CCC(=O)C[C@@H]1CC[C@@H]1[C@@H]2CC[C@]2(CCOCc3cc(F)cc(F)c3)[C@@H](O)CC[C@@H]12 | Active | inactive
